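Compound exposure: 48 hours, 5 concentrations, 96-well plates. GI50 = concentration required for 50% inhibition of growth. At the TGI there is no net growth.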
Assays:
Assay in all cases: growth of human tumour cells (NCI), 48 h
[1] = tested on: 786-0 renal
[2] = tested on: A498 renal
[3] = tested on: A549 NSCLC
[4] = tested on: ACHN renal
[5] = tested on: BT-549 breast
[6] = tested on: CAKI-1 renal
[7] = tested on: CCRF-CEM leukemia
[8] = tested on: COLO 205 colon
[9] = tested on: DU-145 prostate
[10] = tested on: EKVX NSCLC
[11] = tested on: HCC-2998 colon
[12] = tested on: HCT-116 colon
[13] = tested on: HCT-15 colon
[14] = tested on: HL-60(TB) leukemia
[15] = tested on: HOP-62 NSCLC
[16] = tested on: HOP-92 NSCLC
[17] = tested on: HS 578T breast
[18] = tested on: HT29 colon
[19] = tested on: IGROV1 ovarian
[20] = tested on: K-562 leukemia
[21] = tested on: KM12 colon
[22] = tested on: LOX IMVI melanoma
[23] = tested on: M14 melanoma
[24] = tested on: MALME-3M melanoma
[25] = tested on: MCF7 breast
[26] = tested on: MDA-MB-231 breast
[27] = tested on: MDA-MB-435
[28] = tested on: MOLT-4 leukemia
[29] = tested on: NCI-H226 lung
[30] = tested on: NCI-H23 lung
[31] = tested on: NCI-H460 lung
[32] = tested on: NCI-H522 lung
[33] = tested on: NCI/ADR-RES ovarian
[34] = tested on: OVCAR-3 ovarian
[35] = tested on: OVCAR-4 ovarian
[36] = tested on: OVCAR-5 ovarian
[37] = tested on: OVCAR-8 ovarian
[38] = tested on: PC-3 prostate
[39] = tested on: RPMI-8226 leukemia
[40] = tested on: RXF 393 renal
[41] = tested on: SF-268 CNS
[42] = tested on: SF-295 CNS
[43] = tested on: SF-539 CNS
[44] = tested on: SK-MEL-2 melanoma
[45] = tested on: SK-MEL-28 melanoma
[46] = tested on: SK-MEL-5 melanoma
[47] = tested on: SK-OV-3 ovarian
[48] = tested on: SN12C renal
[49] = tested on: SNB-19 CNS
[50] = tested on: SNB-75 CNS
[51] = tested on: SR leukemia
[52] = tested on: SW-620 colon
[53] = tested on: T-47D breast
[54] = tested on: TK-10 renal
[55] = tested on: U251 CNS
[56] = tested on: UACC-257 melanoma
[57] = tested on: UACC-62 melanoma
[58] = tested on: UO-31 renal

CCOCCCn1c2c(c3c(O)cccc31)C(=O)c1ccccc1-2
GI50 [1]: 22 µM | TGI [1]: 51.9 µM | GI50 [2]: 21.7 µM | TGI [2]: 52.5 µM | GI50 [3]: 29.2 µM | TGI [3]: > 100 µM | GI50 [4]: 20.6 µM | TGI [4]: 55 µM | GI50 [5]: 29 µM | TGI [5]: 87.8 µM | GI50 [6]: 21.6 µM | TGI [6]: 64.1 µM | GI50 [7]: 25.1 µM | TGI [7]: 88.6 µM | GI50 [8]: 16 µM | TGI [8]: 33.3 µM | GI50 [9]: 33.3 µM | TGI [9]: > 100 µM | GI50 [10]: 24.3 µM | TGI [10]: 79 µM | GI50 [11]: 22.1 µM | TGI [11]: 64.3 µM | GI50 [12]: 16.6 µM | TGI [12]: 33.5 µM | GI50 [13]: 26.8 µM | TGI [13]: 65.6 µM | GI50 [14]: 13.2 µM | TGI [14]: 31.4 µM | GI50 [15]: 17.8 µM | TGI [15]: 48 µM | GI50 [16]: 16.8 µM | TGI [16]: 43.3 µM | GI50 [17]: 32.8 µM | TGI [17]: 82.3 µM | GI50 [18]: 30.2 µM | TGI [18]: > 100 µM | GI50 [19]: 17.1 µM | TGI [19]: 48.7 µM | GI50 [20]: 18.6 µM | TGI [20]: 55.7 µM | GI50 [21]: 16.6 µM | TGI [21]: 39.4 µM | GI50 [22]: 17.2 µM | TGI [22]: 32.7 µM | GI50 [23]: 16.2 µM | TGI [23]: 31.5 µM | GI50 [24]: 14.7 µM | TGI [24]: 37.1 µM | GI50 [25]: 32.6 µM | TGI [25]: > 100 µM | GI50 [26]: 12.8 µM | TGI [26]: 35.3 µM | GI50 [27]: 18.4 µM | TGI [27]: 46.5 µM | GI50 [28]: 13.7 µM | TGI [28]: 32.7 µM | GI50 [29]: 24.1 µM | TGI [29]: 81.6 µM | GI50 [30]: 19.1 µM | TGI [30]: 53.2 µM | GI50 [31]: 21.6 µM | TGI [31]: 63.9 µM | GI50 [32]: 14 µM | TGI [32]: 35.7 µM | GI50 [33]: 20.8 µM | TGI [33]: 56.5 µM | GI50 [34]: 21.9 µM | TGI [34]: 55.3 µM | GI50 [35]: 21.3 µM | TGI [35]: 69.3 µM | GI50 [36]: 17.8 µM | TGI [36]: 39.9 µM | GI50 [37]: 31.1 µM | TGI [37]: > 100 µM | GI50 [38]: 14.7 µM | TGI [38]: 36.7 µM | GI50 [39]: 16.4 µM | TGI [39]: 43.9 µM | GI50 [40]: 30.3 µM | TGI [40]: 82.1 µM | GI50 [41]: 18.1 µM | TGI [41]: 50.3 µM | GI50 [42]: 21.4 µM | TGI [42]: 55.3 µM | GI50 [43]: 24.7 µM | TGI [43]: 63.3 µM | GI50 [44]: 20.3 µM | TGI [44]: 38.5 µM | GI50 [45]: 22.5 µM | TGI [45]: 46.3 µM | GI50 [46]: 15.8 µM | TGI [46]: 29.8 µM | GI50 [47]: 24.8 µM | TGI [47]: 72.4 µM | GI50 [48]: 11.5 µM | TGI [48]: 25.5 µM | GI50 [49]: 26.7 µM | TGI [49]: > 100 µM | GI50 [50]: 20.5 µM | TGI [50]: 50.3 µM | GI50 [51]: 10.6 µM | TGI [51]: 27.7 µM | GI50 [52]: 28.4 µM | TGI [52]: > 100 µM | GI50 [53]: 13.9 µM | TGI [53]: 46.5 µM | GI50 [54]: 23.4 µM | TGI [54]: 76.2 µM | GI50 [55]: 23.7 µM | TGI [55]: 62.5 µM | GI50 [56]: 27.8 µM | TGI [56]: 68.6 µM | GI50 [57]: 14.5 µM | TGI [57]: 30.1 µM | GI50 [58]: 15.9 µM | TGI [58]: 38.4 µM

From PubChem BioAssay (NCI)
